Assay results reported in patent publication US10766893B2 (priority 2017, dated 2020).

Columns and labels:
Experiment in all cases: biochemical
Format in all cases: biochemical
Details in all cases: 15 nM tritium labelled cAMP, 1 hr at room temperature
[1] = molecular target: PDE1B (Homo sapiens (Human), UniProt Q01064)
Text: (§1) Table 1 lists the IC50 value for inhibition of PDE1 by the compounds of the invention. […] PDE1 assays are described in the Experimental Section.

[2] = molecular target: PDE1C (Homo sapiens (Human), UniProt Q14123)
Sequence of PDE1C (Q14123 whole entry): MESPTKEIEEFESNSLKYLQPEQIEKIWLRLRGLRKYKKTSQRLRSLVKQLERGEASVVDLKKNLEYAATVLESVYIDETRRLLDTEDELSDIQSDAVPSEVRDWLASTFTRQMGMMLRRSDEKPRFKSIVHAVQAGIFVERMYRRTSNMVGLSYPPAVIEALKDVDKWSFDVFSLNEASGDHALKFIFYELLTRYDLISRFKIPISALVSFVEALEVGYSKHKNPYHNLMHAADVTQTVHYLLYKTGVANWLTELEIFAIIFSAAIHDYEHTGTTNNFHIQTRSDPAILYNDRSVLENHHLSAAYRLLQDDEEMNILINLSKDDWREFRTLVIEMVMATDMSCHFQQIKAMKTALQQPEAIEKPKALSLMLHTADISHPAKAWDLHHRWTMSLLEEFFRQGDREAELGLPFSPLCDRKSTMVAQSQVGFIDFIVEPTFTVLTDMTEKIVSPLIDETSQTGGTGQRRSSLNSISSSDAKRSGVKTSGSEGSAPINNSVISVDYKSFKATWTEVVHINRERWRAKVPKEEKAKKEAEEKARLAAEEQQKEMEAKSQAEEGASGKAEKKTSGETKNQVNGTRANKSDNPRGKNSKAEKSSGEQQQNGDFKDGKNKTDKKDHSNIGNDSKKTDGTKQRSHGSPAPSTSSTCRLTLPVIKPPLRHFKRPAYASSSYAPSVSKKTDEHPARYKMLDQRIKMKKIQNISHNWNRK
Text: as §1

[3] = molecular target: PDE1A (Homo sapiens (Human), UniProt P54750)
Sequence of PDE1A (P54750 whole entry): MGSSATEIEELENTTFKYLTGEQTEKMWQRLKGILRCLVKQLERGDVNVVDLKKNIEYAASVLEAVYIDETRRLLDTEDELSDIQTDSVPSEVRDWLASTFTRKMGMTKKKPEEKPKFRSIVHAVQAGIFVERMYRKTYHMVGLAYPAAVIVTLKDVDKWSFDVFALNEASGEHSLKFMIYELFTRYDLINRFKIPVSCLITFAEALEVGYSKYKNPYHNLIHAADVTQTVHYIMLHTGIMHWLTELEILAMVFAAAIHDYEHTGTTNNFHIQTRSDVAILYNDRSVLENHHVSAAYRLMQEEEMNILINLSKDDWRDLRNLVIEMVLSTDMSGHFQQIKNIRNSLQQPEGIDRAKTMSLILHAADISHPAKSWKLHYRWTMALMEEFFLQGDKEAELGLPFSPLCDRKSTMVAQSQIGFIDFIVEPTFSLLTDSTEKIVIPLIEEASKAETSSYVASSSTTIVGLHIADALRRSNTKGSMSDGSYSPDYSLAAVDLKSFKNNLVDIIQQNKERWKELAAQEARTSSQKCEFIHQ
Text: as §1

Sequence of PDE1B (Q01064 whole entry): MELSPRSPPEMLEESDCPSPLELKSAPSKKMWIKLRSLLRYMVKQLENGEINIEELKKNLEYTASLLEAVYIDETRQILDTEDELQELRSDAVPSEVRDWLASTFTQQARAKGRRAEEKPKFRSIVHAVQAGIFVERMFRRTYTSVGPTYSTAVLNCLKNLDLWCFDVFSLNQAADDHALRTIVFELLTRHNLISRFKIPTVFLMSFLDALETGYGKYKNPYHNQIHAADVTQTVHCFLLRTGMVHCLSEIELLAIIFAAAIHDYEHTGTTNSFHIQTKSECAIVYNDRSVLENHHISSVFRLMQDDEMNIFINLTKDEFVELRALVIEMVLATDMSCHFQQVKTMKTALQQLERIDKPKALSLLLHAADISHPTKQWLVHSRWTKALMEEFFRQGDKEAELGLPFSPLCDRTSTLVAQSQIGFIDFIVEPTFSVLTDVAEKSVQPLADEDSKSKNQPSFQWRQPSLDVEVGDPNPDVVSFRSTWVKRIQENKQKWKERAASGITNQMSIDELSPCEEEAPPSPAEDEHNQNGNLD

SMILES | IC50 [1] [nM] | IC50 [2] [nM] | IC50 [3] [nM]
CCOc1nnccc1-c1cc(NCc2ccn(C)n2)c2c(n1)c(C)nn2C(C)C [Example 9b, 5-(3-ethoxypyridazin-4-yl)-1-isopropyl-3-methyl-N-[(1-methylpyrazol-3-yl)methyl]pyrazolo[4,3-b]pyridin-7-amine] | 0.6 | 22 | 5.2
CCOc1nnccc1-c1cc(NCc2ncc(F)cn2)c2c(n1)c(C)nn2C(C)C [Example 10b, 5-(3-ethoxypyridazin-4-yl)-N-[(5-fluoropyrimidin-2-yl)methyl]-1-isopropyl-3-methyl-pyrazolo[4,3-b]pyridin-7-amine] | 2.4 | 67 | 21
CCOc1ncccc1-c1cc(NCc2cccc3oc(C)nc23)c2c(n1)c(C)nn2C(C)C [Example 11a, 5-(2-ethoxy-3-pyridyl)-1-isopropyl-3-methyl-N-[(2-methyl-1,3-benzoxazol-4-yl)methyl]pyrazolo[4,3-b]pyridin-7-amine] | 4 | 26 | 18
CCOc1nnccc1-c1cc(NCc2nccc(C)n2)c2c(n1)c(C)nn2C(C)C [Example 11b, 5-(3-ethoxypyridazin-4-yl)-1-isopropyl-3-methyl-N-[(4-methylpyrimidin-2-yl)methyl]pyrazolo[4,3-b]pyridin-7-amine] | 4.4 | 160 | 38
CCOc1ncccc1-c1cc(NCc2ccc3oc(C)nc3c2)c2c(n1)c(C)nn2C(C)C [Example 12a, 5-(2-ethoxy-3-pyridyl)-1-isopropyl-3-methyl-N-[(2-methyl-1,3-benzoxazol-5-yl)methyl]pyrazolo[4,3-b]pyridin-7-amine] | 0.81 | 31 | 8.7
CCOc1cnccc1-c1cc(NCc2cccc(F)n2)c2c(n1)c(C)nn2C(C)C [Example 12b, 5-(3-ethoxy-4-pyridyl)-N-[(6-fluoro-2-pyridyl)methyl]-1-isopropyl-3-methyl-pyrazolo[4,3-b]pyridin-7-amine] | 1.1 | 61 | 22
CCOc1nnccc1-c1cc(NCc2cccc3ocnc23)c2c(n1)c(C)nn2C(C)C [Example 13a, N-(1,3-benzoxazol-4-ylmethyl)-5-(3-ethoxypyridazin-4-yl)-1-isopropyl-3-methyl-pyrazolo[4,3-b]pyridin-7-amine] | 1.7 | 93 | 39
CCOc1cnccc1-c1cc(NCc2cc[nH]n2)c2c(n1)c(C)nn2C(C)C [Example 13b, 5-(3-ethoxy-4-pyridyl)-1-isopropyl-3-methyl-N-(1H-pyrazol-3-ylmethyl)pyrazolo[4,3-b]pyridin-7-amine] | 2.5 | 56 | 24
CCOc1ncccc1-c1cc(NCc2nccc3nncn23)c2c(n1)c(C)nn2C(C)C [Example 15a, N-([1,2,4]triazolo[4,3-c]pyrimidin-5-ylmethyl)-5-(2-ethoxypyridin-3-yl)-1-isopropyl-3-methyl-1H-pyrazolo[4,3-b]pyridin-7-amine] | 4.8 | 43 | 30
CCOc1cnccc1-c1cc(NCc2ccccn2)c2c(n1)c(C)nn2C(C)C [Example 15b, 5-(3-ethoxy-4-pyridyl)-1-isopropyl-3-methyl-N-(2-pyridylmethyl)pyrazolo[4,3-b]pyridin-7-amine] | 1.4 | 55 | 17
CCOc1ncccc1-c1cc(NCc2nccc3nccn23)c2c(n1)c(C)nn2C(C)C [Example 16a, 5-(2-ethoxypyridin-3-yl)-N-(imidazo[1,2-c]pyrimidin-5-ylmethyl)-1-isopropyl-3-methyl-1H-pyrazolo[4,3-b]pyridin-7-amine] | 4 | 44 | 35
CCOc1nnccc1-c1cc(NCc2cccnc2F)c2c(n1)c(C)nn2C(C)C [Example 16b, 5-(3-ethoxypyridazin-4-yl)-N-[(2-fluoro-3-pyridyl)methyl]-1-isopropyl-3-methyl-pyrazolo[4,3-b]pyridin-7-amine] | 3.4 | 50 | 18
CCOc1cnccc1-c1cc(NCc2cccnc2F)c2c(n1)c(C)nn2C(C)C [Example 17b, 5-(3-ethoxy-4-pyridyl)-N-[(2-fluoro-3-pyridyl)methyl]-1-isopropyl-3-methyl-pyrazolo[4,3-b]pyridin-7-amine] | 2.4 | 37 | 20
CCOc1nnccc1-c1cc(NCc2ncn(C)n2)c2c(n1)c(C)nn2C(C)C [Example 18b, 5-(3-ethoxypyridazin-4-yl)-1-isopropyl-3-methyl-N-[(1-methyl-1,2,4-triazol-3-yl)methyl]pyrazolo[4,3-b]pyridin-7-amine] | 0.59 | 17 | 3.6
CCOc1cnccc1-c1cc(NCc2ncn(C)n2)c2c(n1)c(C)nn2C(C)C [Example 19b, 5-(3-ethoxy-4-pyridyl)-1-isopropyl-3-methyl-N-[(1-methyl-1,2,4-triazol-3-yl)methyl]pyrazolo[4,3-b]pyridin-7-amine] | 0.91 | 22 | 11
CCOc1nnccc1-c1cc(NCc2cnc(C)s2)c2c(n1)c(C)nn2C(C)C [Example 20b, 5-(3-ethoxypyridazin-4-yl)-1-isopropyl-3-methyl-N-[(2-methylthiazol-5-yl)methyl]pyrazolo[4,3-b]pyridin-7-amine] | 1.1 | 24 | 5.7
CCOc1cnccc1-c1cc(NCc2cnc(C)s2)c2c(n1)c(C)nn2C(C)C [Example 21b, 5-(3-ethoxy-4-pyridyl)-1-isopropyl-3-methyl-N-[(2-methylthiazol-5-yl)methyl]pyrazolo[4,3-b]pyridin-7-amine] | 0.64 | 14 | 5.6
CCOc1cnccc1-c1cc(NCc2cc(C)[nH]n2)c2c(n1)c(C)nn2C(C)C [Example 23b, 5-(3-ethoxy-4-pyridyl)-1-isopropyl-3-methyl-N-[(5-methyl-1H-pyrazol-3-yl)methyl]pyrazolo[4,3-b]pyridin-7-amine] | 0.55 | 12 | 5.5
CCOc1cnccc1-c1cc(NCc2cccc(OC)n2)c2c(n1)c(C)nn2C(C)C [Example 25b, 5-(3-ethoxy-4-pyridyl)-1-isopropyl-N-[(6-methoxy-2-pyridyl)methyl]-3-methyl-pyrazolo[4,3-b]pyridin-7-amine] | 1.6 | 53 | 17
CCOc1cnccc1-c1cc(NCc2ccn(C)n2)c2c(n1)c(C)nn2C(C)C [Example 27b, 5-(3-ethoxy-4-pyridyl)-1-isopropyl-3-methyl-N-[(1-methylpyrazol-3-yl)methyl]pyrazolo[4,3-b]pyridin-7-amine] | 1.6 | 42 | 17
COc1cnccc1-c1cc(NCc2cnn(C)c2)c2c(n1)c(C)nn2C(C)C [Example 29b, 1-isopropyl-5-(3-methoxy-4-pyridyl)-3-methyl-N-[(1-methylpyrazol-4-yl)methyl]pyrazolo[4,3-b]pyridin-7-amine] | 4.9 | 44 | 32
CCOc1cnccc1-c1cc(NCc2cccnc2OC)c2c(n1)c(C)nn2C(C)C [Example 30b, 5-(3-ethoxy-4-pyridyl)-1-isopropyl-N-[(2-methoxy-3-pyridyl)methyl]-3-methyl-pyrazolo[4,3-b]pyridin-7-amine] | 2.7 | 65 | 27
